Measured values from publication PMC8945686, “Anticancer Effects with Molecular Docking Confirmation of Newly Synthesized Isatin Sulfonamide Molecular Hybrid Derivatives against Hepatic Cancer Cell Lines” (Biomedicines, 2022).

Test system: HepG2 cells
Assay: MTT cytotoxicity assay on HepG2 cells
Format: cell-based
Conditions: Homo sapiens; for cytotoxicity at 100 ppm: 48 h, 100 p.p.m (μg/mL), read-out: % Death Rate at 100 p.p.m (μg/mL) HepG2; for IC50: HepG2, 48 h
Protocol: MTT-based cell viability assay was carried out to evaluate the antiproliferation potential of the target compounds on HCC cell lines (HepG2 and Huh7). The half maximal inhibitory concentration (IC50) values were calculated against DMSO non-treated HepG2 cells (negative control) and Dox-treated HepG2 cells (positive control). The assay was conducted using 3-(4, 5-di-MethylThiazol-2-yl)-2,5-diphenyl Tetrazolium bromide (MTT) to test cell viability, according to the method described by Mosmann with minor changes. The yellow MTT is reduced in the viable cells to purple formazan. The insoluble formazan is solubilized by DMSO to colored solution measured spectrophotometrically. Briefly, cells were seeded in a 96-well plate at density of 1 × 10^4 cells/well for 24 h in 5% CO2 incubator at 37 °C to allow their adherence. […] After incubation, 20 μL of a 5 mg/mL MTT solution were mixed with the contents of each well, and the plate was incubated for another 4 h. Then, the medium was suctioned, and the wells were washed with PBS. After 2 h of drying, 200 μL of DMSO was added to each well. The plate was set on a shaker to dissolve the formazan crystals. Then, the absorbance was measured spectrophotometrically at 570 nm with a reference wavelength of 630 nm using ELX800 UV universal microplate reader (BioTek Instruments Inc., VT, Santa Clara, CA, USA).
All experiment conditions were tested in three replicates. The % cell viability was calculated from the following equation: (mean absorbance of treated sample/mean absorbance of negative control sample) × 100. The % death rate = 100 -% cell viability, and the inhibitory concentration of 50% (IC50) was measured from the exponential curve of viability against concentration (dose–response curve).

Row | SMILES | cytotoxicity at 100 ppm [%] | IC50 [µM]
1 | Cc1ccc(C(=O)CC2(O)C(=O)Nc3ccc(S(=O)(=O)N4CCCCC4)cc32)cc1 (centres unmarked) [Compound 3a, 3-hydroxy-3-(2-oxo-2-(p-tolyl)ethyl)-5-(piperidin-1-ylsulfonyl)indolin-2-one] | 70.1 | ~16.8
2 | CC(=O)Nc1ccc(C(=O)C=C2C(=O)Nc3ccc(S(=O)(=O)N4CCCCC4)cc32)cc1 [Compound 4b, N-(4-(2-(2-oxo-5-(piperidin-1-ylsulfonyl)indolin-3-ylidene)acetyl)phenyl)acetamide] | 94.2 | ~44.7
3 | CC(=O)Nc1cccc(C(=O)C=C2C(=O)Nc3ccc(S(=O)(=O)N4CCCCC4)cc32)c1 [Compound 4c, N-(3-(2-(2-oxo-5-(piperidin-1-ylsulfonyl)indolin-3-ylidene)acetyl)phenyl)acetamide] | 95.6 | ~39.7
4 | COc1cccc2c1C(=O)c1c(O)c3c(c(O)c1C2=O)C[C@@](O)(C(=O)CO)C[C@@H]3O[C@H]1C[C@H](N)[C@H](O)[C@H](C)O1 [Doxorubicin, reference compound] | 100 | 21.6 ± 0.81
